In ChEMBL document CHEMBL3045011, “Synthesis and Herbicidal Activities of 2-(5-Isoxazolyloxy)-acetamide Derivatives” (J Pestic Sci, 1998):
The source made the active and inactive calls. The rule behind the calls is not given here.

Legend:
[1] = test system: Echinochloa crus-galli; test: Herbicidal activity against Echinochloa crus-galli (barnyard grass) assessed as seedling death under green house at 0.5 kg/ha at 25 degC measured after 4 weeks; type: functional, organism-based
[2] = test system: Persicaria lapathifolia; test: Herbicidal activity against Persicaria lapathifolia assessed as seedling death under green house at 1 kg/ha at 25 degC measured after 4 weeks; type: functional, organism-based
[3] = test system: Amaranthus viridis; test: Herbicidal activity against Amaranthus viridis assessed as seedling death under green house at 0.25 kg/ha at 25 degC measured after 4 weeks; type: functional, organism-based
[4] = test system: Amaranthus viridis; test: Herbicidal activity against Amaranthus viridis assessed as seedling death under green house at 0.5 kg/ha at 25 degC measured after 4 weeks; type: functional, organism-based
[5] = test system: Triticum aestivum; test: Toxicity in Triticum aestivum cv. Nohrin-61 (wheat) assessed as seedling death under green house at 0.25 kg/ha at 25 degC measured after 4 weeks by crop selectivity assay; type: organism-based; conditions: in vivo, 672 h
[6] = test system: Digitaria ciliaris; test: Herbicidal activity against Digitaria ciliaris assessed as seedling death under green house at 0.5 kg/ha at 25 degC measured after 4 weeks; type: functional, organism-based
[7] = test system: Digitaria ciliaris; test: Herbicidal activity against Digitaria ciliaris assessed as seedling death under green house at 0.25 kg/ha at 25 degC measured after 4 weeks; type: functional, organism-based
[8] = test system: Digitaria ciliaris; test: Herbicidal activity against Digitaria ciliaris assessed as seedling death under green house at 1 kg/ha at 25 degC measured after 4 weeks; type: functional, organism-based
[9] = test system: Glycine max; test: Toxicity in Glycine max cv. Tamahomare (soybean) assessed as seedling death under green house at 0.25 kg/ha at 25 degC measured after 4 weeks by crop selectivity assay; type: organism-based; conditions: in vivo, 672 h
[10] = test system: Amaranthus viridis; test: Herbicidal activity against Amaranthus viridis assessed as seedling death under green house at 1 kg/ha at 25 degC measured after 4 weeks; type: functional, organism-based
[11] = test system: Echinochloa crus-galli; test: Herbicidal activity against Echinochloa crus-galli (barnyard grass) assessed as seedling death under green house at 0.25 kg/ha at 25 degC measured after 4 weeks; type: functional, organism-based
[12] = test system: Echinochloa crus-galli; test: Herbicidal activity against Echinochloa crus-galli (barnyard grass) assessed as seedling death under green house at 1 kg/ha at 25 degC measured after 4 weeks; type: functional, organism-based
[13] = test system: Gossypium hirsutum; test: Toxicity in Gossypium hirsutum cv. Hakushuu (cotton) assessed as seedling death under green house at 0.25 kg/ha at 25 degC measured after 4 weeks by crop selectivity assay; type: organism-based; conditions: in vivo, 672 h
[14] = test system: Glycine max; test: Toxicity in Glycine max cv. Tamahomare (soybean) assessed as seedling death under green house at 1 kg/ha at 25 degC measured after 4 weeks by crop selectivity assay; type: organism-based; conditions: in vivo, 672 h
[15] = test system: Triticum aestivum; test: Toxicity in Triticum aestivum cv. Nohrin-61 (wheat) assessed as seedling death under green house at 1 kg/ha at 25 degC measured after 4 weeks by crop selectivity assay; type: organism-based; conditions: in vivo, 672 h
[16] = test system: Gossypium hirsutum; test: Toxicity in Gossypium hirsutum cv. Hakushuu (cotton) assessed as seedling death under green house at 0.5 kg/ha at 25 degC measured after 4 weeks by crop selectivity assay; type: organism-based; conditions: in vivo, 672 h
[17] = test system: Glycine max; test: Toxicity in Glycine max cv. Tamahomare (soybean) assessed as seedling death under green house at 0.5 kg/ha at 25 degC measured after 4 weeks by crop selectivity assay; type: organism-based; conditions: in vivo, 672 h
[18] = test system: Triticum aestivum; test: Toxicity in Triticum aestivum cv. Nohrin-61 (wheat) assessed as seedling death under green house at 0.5 kg/ha at 25 degC measured after 4 weeks by crop selectivity assay; type: organism-based; conditions: in vivo, 672 h
[19] = test system: Gossypium hirsutum; test: Toxicity in Gossypium hirsutum cv. Hakushuu (cotton) assessed as seedling death under green house at 1 kg/ha at 25 degC measured after 4 weeks by crop selectivity assay; type: organism-based; conditions: in vivo, 672 h
[20] = test system: Persicaria lapathifolia; test: Herbicidal activity against Persicaria lapathifolia assessed as seedling death under green house at 0.25 kg/ha at 25 degC measured after 4 weeks; type: functional, organism-based
[21] = test system: Persicaria lapathifolia; test: Herbicidal activity against Persicaria lapathifolia assessed as seedling death under green house at 0.5 kg/ha at 25 degC measured after 4 weeks; type: functional, organism-based
[22] = test system: Echinochloa crus-galli; test: Herbicidal activity against Echinochloa crus-galli (barnyard grass) assessed as seedling death under green house at 2 kg/ha at 25 degC measured after 4 weeks; type: functional, organism-based
[23] = test system: Digitaria ciliaris; test: Herbicidal activity against Digitaria ciliaris assessed as seedling death under green house at 2 kg/ha at 25 degC measured after 4 weeks; type: functional, organism-based

Compound	Activity [1]	Activity [3]	Activity [4]	Activity [5]	Activity [6]	Activity [7]	Activity [8]	Activity [9]	Activity [10]	Activity [12]	Activity [13]	Activity [16]	Activity [17]	Activity [18]	other results
Cc1c(C(F)(F)F)noc1OCC(=O)N(C)c1cccc(F)c1	Active	Active	Active	Non-toxic	Active	Active	Active	Non-toxic	Active	Active	Non-toxic	–	–	–	Activity [2]: Active; Activity [11]: Active
Cc1c(C(F)(F)F)noc1OCC(=O)N(C)c1ccccc1	Active	–	–	–	Active	–	Active	–	Active	Active	–	Non-toxic	Non-toxic	Non-toxic	Activity [14]: Non-toxic; Activity [15]: Non-toxic
CN(C(=O)COc1onc(C(F)(F)F)c1-c1ccccc1)c1ccccc1	Active	–	–	–	Active	–	Active	–	–	Active	–	Non-toxic	Non-toxic	Non-toxic	Activity [14]: Non-toxic; Activity [15]: Non-toxic; Activity [19]: Non-toxic
Cc1c(C(F)(F)F)noc1OCC(=O)N(C)c1ccccc1Br	Active	–	Active	Non-toxic	Active	Active	Active	Non-toxic	Active	Active	Non-toxic	–	–	–	Activity [2]: Active; Activity [11]: Active
CN(C(=O)COc1cc(C(F)(F)F)no1)c1ccccc1	–	–	–	–	Active	–	Active	–	–	Active	–	Non-toxic	Non-toxic	Non-toxic	Activity [19]: Non-toxic
CN(C(=O)COc1nnc(C(F)(F)F)s1)c1ccccc1	–	inactive	inactive	Non-toxic	–	inactive	–	Non-toxic	–	–	Non-toxic	Non-toxic	Non-toxic	Non-toxic	Activity [20]: inactive; Activity [21]: inactive
CCCCCCN(C)C(=O)COc1onc(C(F)(F)F)c1C	–	–	–	–	–	–	–	–	–	–	–	–	–	–	Activity [22]: Active; Activity [23]: Active
CN(C(=O)COc1nc2ccccc2s1)c1ccccc1 [MEFENACET]	–	inactive	–	Non-toxic	–	–	–	Non-toxic	–	–	Non-toxic	Non-toxic	Non-toxic	Non-toxic	Activity [20]: inactive; Activity [21]: inactive
